US10335372B2, “Compositions with modified nucleases targeted to viral nucleic acids and methods of use for prevention and treatment of viral diseases” (priority 2004, dated 2019)
Several values for one entry are separate records, joined by “and”; a condition that tells them apart may be missing. Identical values can stand only once. Like-named read-outs stand apart in the source and are kept apart here.

Key:
[1] = tested on: double-stranded RNA; conditions: physiological salt conditions; double-stranded RNA substrate; cited from earlier work
[2] = tested on: FMDV of O-type; conditions: guinea pig, in vivo
[3] = tested on: FMD virus; format: cell-based
[4] = tested on: dsRNA reovirus; experiment: Combination of human RNase I and human RNase III against reovirus in HEP-2 cells; format: cell-based; conditions: 200 UA/ml
Experimental: The reovirus stock preparation used in this example has a titer of 5.5 log CPD50/0.1 ml.

[5] = tested on: Influenza virus A/Aichi/2/68/H3N2; format: in vivo; conditions: mice, single values
[6] = tested on: West Nile virus; experiment: Antiviral effect of modified RNase I against West Nile virus in newborn rabbit kidney cells; conditions: average of four replicate determinations
[7] = tested on: ssRNA corona virus; experiment: Antiviral activity of labeled RNase I variants against ssRNA corona virus; format: cell-based
[8] = Cellular uptake of fluorescamine-labeled RNase I variants; format: cell-based; conditions: fluorescamine label

Substance | enzymatic activity relative to RNase A [1] | Survived [2] | duration of preventive effect after a single injection [2] | animals that developed FMD ([2]; sc) | Survived ([2]; record 2) | Titer [3] | Average Titer [4] [logTCD50/0.1 ml] | Titer ([4]; single values) | Titer in lungs ([5]; treatment i.n.) | Titer in lungs ([5]; treatment i.p.) | logTCD50/ml ([6]; 100 UA/ml) [logTCD50/ml] | logTCD50/ml ([6]; 250 UA/ml) [logTCD50/ml] | Average Titer [7] | Cellular Uptake [OD430 nm] [8]
RNase: recombinant / wild-type human RNase I (Examples 22, 30, 31) | about 500 times | 40 | at least 4 hours | 8 | 32 | 7.3; 7.1; 6.8 logTCD50/ml | 4.0 | 3.9 logTCD50/0.1 ml and 4.0 logTCD50/0.1 ml and 4.1 logTCD50/0.1 ml | 4.5 log TCD50 and 4.0 log TCD50 and 4.3 log TCD50 | 4.7 log TCD50 and 5.0 log TCD50 and 4.5 log TCD50 | 7.7 | 7.0 | – | –
*RNase I: fluorescamine-labeled human RNase I | – | – | – | – | – | – | – | – | – | – | – | – | 5.4 | 110
